From PubChem BioAssay (NCI)
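Growth conditions: 96-well plates. Treatment: test compound, 48 hours, 5 concentrations. Analysis: linear interpolation between bracketing concentrations; unreached endpoints set to highest concentration. TGI denotes the concentration required for complete inhibition of growth.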

Experiments:
Assay in all cases: growth of human tumour cells (NCI), 48 h
786-0 renal = test system: 786-0 renal
ACHN renal = test system: ACHN renal
HCT-116 colon = test system: HCT-116 colon
MDA-MB-231 breast = test system: MDA-MB-231 breast
MDA-N = test system: MDA-N
NCI-H226 lung = test system: NCI-H226 lung
NCI/ADR-RES ovarian = test system: NCI/ADR-RES ovarian
RPMI-8226 leukemia = test system: RPMI-8226 leukemia
SF-295 CNS = test system: SF-295 CNS
SK-MEL-2 melanoma = test system: SK-MEL-2 melanoma
SK-MEL-28 melanoma = test system: SK-MEL-28 melanoma
SK-MEL-5 melanoma = test system: SK-MEL-5 melanoma
SR leukemia = test system: SR leukemia
SW-620 colon = test system: SW-620 colon
T-47D breast = test system: T-47D breast
U251 CNS = test system: U251 CNS

Row | SMILES | TGI (786-0 renal) [µM] | TGI (ACHN renal) [µM] | TGI (HCT-116 colon) [µM] | TGI (MDA-MB-231 breast) [µM] | TGI (MDA-N) [µM] | TGI (NCI-H226 lung) [µM] | TGI (NCI/ADR-RES ovarian) [µM] | TGI (RPMI-8226 leukemia) [µM] | TGI (SF-295 CNS) [µM] | TGI (SK-MEL-2 melanoma) [µM] | TGI (SK-MEL-28 melanoma) [µM] | TGI (SK-MEL-5 melanoma) [µM] | TGI (SR leukemia) [µM] | TGI (SW-620 colon) [µM] | TGI (T-47D breast) [µM] | TGI (U251 CNS) [µM]
1 | O=C1CSCC(=O)Nc2ccccc2N1 | > 100 | > 100 | > 100 | > 100 | > 100 | > 100 | > 100 | > 100 | > 100 | > 100 | > 100 | > 100 | > 100 | > 100 | > 100 | > 100
2 | O=C1c2ccccc2-c2nnc3c(c21)Cc1ccccc1C3 | > 10 | > 10 | > 10 | > 10 | > 10 | > 10 | > 10 | > 10 | > 10 | > 10 | > 10 | > 10 | > 10 | > 10 | > 10 | > 10
3 | CCOC(=O)c1nc2ccccc2nc1Oc1cc(OC)cc(OC)c1 | > 100 | > 100 | > 100 | > 100 | > 100 | > 100 | > 100 | > 100 | > 100 | > 100 | > 100 | > 100 | > 100 | > 100 | > 100 | > 100
4 | CC(C#N)(c1ccccc1)N(CCc1ccccc1)C(=O)Oc1ccccc1 (centres undefined) | > 100 | > 100 | > 100 | > 100 | > 100 | > 100 | > 100 | > 100 | > 100 | > 100 | > 100 | > 100 | > 100 | > 100 | > 100 | > 100
5 | Cc1cccc(Nc2nc3ccccc3nc2NS(=O)(=O)c2ccc(N)cc2)c1 | > 100 | > 100 | > 100 | > 100 | > 100 | > 100 | > 100 | > 100 | > 100 | 81.5 | > 100 | > 100 | > 100 | > 100 | > 100 | 53.8
6 | CC(C)(C)C(=O)/C=C(\OB(F)F)C(C)(C)C | > 100 | > 100 | > 100 | > 100 | > 100 | > 100 | > 100 | > 100 | > 100 | > 100 | > 100 | > 100 | > 100 | > 100 | > 100 | > 100
7 | CCCCNC(=O)OCCN=c1c2ccccc2ccc2ccccc12 | > 100 | > 100 | > 100 | > 100 | > 100 | > 100 | > 100 | > 100 | > 100 | > 100 | > 100 | > 100 | > 100 | > 100 | > 100 | > 100
8 | NS(=O)(=O)c1ccc(NC(=S)NC(=O)Nc2ccc(Cl)c(Cl)c2)cc1 | 31.1 | 32.2 | 27.7 | 33.5 | 29.6 | 43.8 | 44.6 | > 85.3 | 30.8 | 34.4 | 43.5 | 31.1 | > 100 | 35.9 | 33.3 | 37.8
9 | CCCN(CCC)C(=S)Sc1nc(C)nc(N2CCN(c3nc(C)nc(SC(=S)N(CCC)CCC)c3[N+](=O)[O-])CC2)c1[N+](=O)[O-] | > 53 | 40.9 | 16.9 | 20.3 | > 100 | > 62.2 | > 100 | > 38.2 | > 58.1 | 30.9 | 36.9 | 28.2 | > 81.9 | 17.1 | 39.9 | 16.7
10 | O=C(O)c1ccccc1CN1CCCC(C(=O)O)C1 (centres undefined) | > 100 | > 100 | > 100 | > 100 | > 100 | > 100 | > 100 | > 100 | > 100 | > 100 | > 100 | > 100 | > 100 | > 100 | > 100 | > 100
11 | C=CCOC(=O)Cn1cnc2c(N)ncnc21 | > 100 | > 100 | > 100 | > 100 | > 100 | > 100 | > 100 | > 100 | > 100 | > 100 | > 100 | > 100 | > 100 | > 100 | > 100 | > 100
12 | O=C1C=CC2(C=C1)O[C@H](COCc1ccccc1)[C@@H](COCc1ccccc1)O2 | 2.22 | 3.1 | 0.582 | 12.8 | 3.53 | 3.89 | 3.71 | 1.94 | 30.3 | 3.46 | 3.57 | 3.22 | 0.849 | 0.765 | 6.99 | 4.02
13 | N#Cc1cc2c(cc1C#N)SCCSCCCSCCS2 | 19 | 19.4 | > 86.6 | 29 | > 100 | > 84.8 | > 100 | > 100 | 18.3 | 42.8 | > 100 | > 100 | > 70.3 | > 100 | > 80.8 | 28.2
14 | CN(Cc1cnc2nc(N)nc(N)c2n1)c1ccc(C(=O)NCCCS(=O)(=O)O)cc1 | > 100 | > 100 | > 100 | > 100 | > 100 | > 100 | > 100 | > 100 | > 100 | > 100 | > 100 | > 100 | > 100 | > 100 | > 100 | > 100
15 | C[N+]1(C)C2CC(OC(=O)C(CO)c3ccccc3)CC1C1OC12 (centres undefined) | > 100 | > 100 | > 100 | > 100 | > 100 | > 100 | > 100 | > 100 | > 100 | > 100 | > 100 | > 100 | > 100 | > 100 | > 100 | > 100
16 | CC1=C(O)C(=O)C=C2C1=CC=C1[C@@]2(C)CC[C@@]2(C)C3C[C@@H](C)C(=O)[C@@H](O)[C@]3(C)CC[C@]12C (some centres undefined) | 2.36 | 3.07 | 3.21 | 3.75 | 3.3 | 11.1 | 9.55 | 5.08 | 13.4 | 9.85 | 4.17 | 12.7 | 1.3 | 2.32 | 3.44 | 2.88
17 | COC(=O)NC(=O)NC(Cc1ccccc1)NC(=O)OCc1ccccc1 (centres undefined) | > 100 | > 100 | > 100 | 78.1 | > 100 | > 100 | > 100 | > 100 | > 100 | > 100 | > 100 | > 100 | > 100 | > 100 | > 100 | > 100
18 | Cc1ccc(S(=O)(=O)NNC(=O)Nc2cccc(C(F)(F)F)c2)cc1 | > 100 | > 100 | > 100 | > 100 | > 100 | > 100 | > 100 | > 100 | > 100 | > 100 | > 100 | > 100 | > 100 | > 100 | > 100 | > 100
19 | COC1=C(C(c2cc(OC)c(OC)c(OC)c2)c2cc3c(cc2OC)OCO3)C(=O)OC1 (centres undefined) | 65.4 | > 79.3 | 33.5 | > 93.5 | 17.1 | 79.7 | 26.2 | > 100 | 51.4 | > 100 | 87.9 | > 62.6 | > 61.7 | > 100 | > 100 | > 96.7
